The results in this text go back to PubChem BioAssay (NCI).

Among the test systems are XF 498 CNS; DMS 114 small cell lung; SNB-78 CNS; M19-MEL melanoma; HOP-18 NSCLC; T-47D breast; BT-549 breast; MCF7 breast; NCI/ADR-RES ovarian; MDA-MB-231 breast; MDA-MB-435.
Common to all, as to experiment: inhibition of tumour cell growth, NCI panel, 48 h

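These data come from cells grown in 96-well plates and exposed to compound for 48 hours at five concentrations. GI50 = concentration required for 50% inhibition of growth. The concentration for full growth arrest is given as TGI.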

Regarding `CC(=O)N/C(=C\c1ccc(/C=C(\NC(C)=O)c2nc3ccc(Cl)cc3[nH]2)cc1)c1nc2ccccc2[nH]1`, the TGI in the assay with XF 498 CNS, in the assay on DMS 114 small cell lung, in the assay on SNB-78 CNS and in the assay on M19-MEL melanoma was over 100 µM each time.
For the compound `CCN(CC)CCC1CC/C(=C\c2ccc(OC)cc2)C1=O` (centres undefined), the TGI in the assay on XF 498 CNS, in the assay on HOP-18 NSCLC, in the assay on DMS 114 small cell lung, in the assay on SNB-78 CNS and with M19-MEL melanoma was over 100 µM in each case.
As for `CC(=O)OCC1OC(n2c(-c3ccccc3)cc(-c3ccco3)c(C#N)c2=O)C(OC(C)=O)C(OC(C)=O)C1OC(C)=O` (centres undefined), the TGI was 43.7 µM in the assay on XF 498 CNS; 78.1 µM in the assay on HOP-18 NSCLC; over 100 µM in the assay with DMS 114 small cell lung; over 100 µM in the assay with SNB-78 CNS; over 100 µM in the assay on M19-MEL melanoma. Besides, in the assay on HOP-18 NSCLC, the GI50 was 28.2 µM.
Compound `COC1=CC23C=CC1[C@@H](c1ccccc1)C2=C(C)C(=O)N3C(=O)NC1CCCCC1` (some centres undefined) came in with a TGI in the assay on SNB-78 CNS of 70.1 µM.
Regarding `CC1(C)C(=O)N(c2ccccc2)C(=O)N1c1nc2ccccc2[nH]1`, the TGI in the assay on XF 498 CNS, in the assay on HOP-18 NSCLC, in the assay on DMS 114 small cell lung, with SNB-78 CNS and in the assay with M19-MEL melanoma was over 100 µM in each case.
As to `COC(=O)c1c(-c2ccccc2)cc2c3cc(-c4ccccc4)c(C(=O)OC)n3c3ccccc3n12`, the TGI with XF 498 CNS, with HOP-18 NSCLC, in the assay on DMS 114 small cell lung, with SNB-78 CNS and in the assay on M19-MEL melanoma was over 100 µM throughout.
As for `CC(=O)NC(CCCCNC(=O)OCc1ccccc1)C(=O)NCc1ccccc1` (centres undefined), the TGI in the assay on XF 498 CNS, in the assay on DMS 114 small cell lung, in the assay with SNB-78 CNS and with M19-MEL melanoma was over 100 µM each time.
Turning to `COc1ccc(-c2c(C3=NCCN3)nnn2-c2ccccc2)cc1`, the TGI with XF 498 CNS, in the assay with HOP-18 NSCLC, with DMS 114 small cell lung, in the assay with SNB-78 CNS and in the assay with M19-MEL melanoma was over 100 µM each time.
As for `Cc1cc2nc3c(C(OC4OC(CO)C(O)C(O)C4O)C(O)CO)nn(-c4ccccc4)c3nc2cc1C` (centres undefined), the TGI with XF 498 CNS, in the assay with DMS 114 small cell lung and in the assay with SNB-78 CNS was over 100 µM throughout.
For `CC1=C2C(O)C(C(C)CO)C(O)CC2(C)C(O)CC1` (centres undefined), the TGI in the assay on DMS 114 small cell lung, with SNB-78 CNS and in the assay with M19-MEL melanoma was over 100 µM each time.
On to `C=CCNC(=S)N1CC(C)C(=O)Nc2ccccc21` (centres undefined), for which the TGI in the assay on XF 498 CNS, in the assay on DMS 114 small cell lung and with SNB-78 CNS was over 100 µM each time.
Take `CC(=O)O[C@H]1C(N(C)C(=O)c2ccccc2)CC[C@]2(C)C3CC[C@@]4(C)C(CC(O)[C@@H]4C(C)N(C)C)[C@@H]3CCC12` (some centres undefined): the TGI in the assay on XF 498 CNS, with HOP-18 NSCLC, with DMS 114 small cell lung, with SNB-78 CNS and in the assay on M19-MEL melanoma was over 100 µM in each case.
Regarding `CCN(CC)CCCCC1CCN(CC(=O)N2CC(C)C(=O)Nc3ccccc32)CC1` (centres undefined), the TGI in the assay on HOP-18 NSCLC, in the assay on DMS 114 small cell lung and in the assay with M19-MEL melanoma was over 100 µM each time.
Consider `CCOc1ccccc1NC(=O)/C=C1\NC(=O)CS1`, for which the TGI in the assay on XF 498 CNS, with HOP-18 NSCLC, in the assay with DMS 114 small cell lung, in the assay on SNB-78 CNS and in the assay on M19-MEL melanoma was over 100 µM in each case.
As for `CN1CCN(CCSC2Cc3cc(Cl)ccc3Sc3ccccc32)CC1` (centres undefined), the TGI with XF 498 CNS turned out to be 9.57 µM; in the assay on HOP-18 NSCLC, 22.6 µM; with DMS 114 small cell lung, 11.2 µM; in the assay with M19-MEL melanoma, 4.16 µM.
Take `O=C1C(Br)=C[C@H]2C3C=CC(Br)(C3=O)[C@@H]12` (some centres undefined): the TGI in the assay on XF 498 CNS was 31.2 µM; in the assay on HOP-18 NSCLC, over 100 µM; in the assay on DMS 114 small cell lung it was 28.3 µM; in the assay on SNB-78 CNS it was over 100 µM; in the assay on M19-MEL melanoma it was 24.8 µM.
As for `NC(=O)c1c[se]c(C2OC(CO)C(O)C2O)n1` (centres undefined), the TGI in the assay with XF 498 CNS, in the assay with HOP-18 NSCLC, in the assay with T-47D breast, with DMS 114 small cell lung, in the assay on BT-549 breast and with MCF7 breast was over 100 µM in each case. The TGI with NCI/ADR-RES ovarian, with MDA-MB-231 breast, in the assay on MDA-MB-435 and in the assay with M19-MEL melanoma was over 100 µM in each case.
Regarding `N#CCCc1nc2ccc(Br)cc2c(=O)n1CCO`, the TGI with XF 498 CNS, with DMS 114 small cell lung, in the assay on SNB-78 CNS and in the assay with M19-MEL melanoma was over 100 µM throughout.
On to `C=CCc1cc2cccc(OC)c2oc1=O`, for which the TGI is 53.5 µM in the assay on XF 498 CNS; over 100 µM with HOP-18 NSCLC; over 100 µM in the assay with DMS 114 small cell lung; over 100 µM in the assay on SNB-78 CNS; over 100 µM in the assay on M19-MEL melanoma.
For the compound `CCC(=O)c1cn(C)c(=O)c2ccccc12`, the TGI in the assay with XF 498 CNS, with DMS 114 small cell lung and in the assay on SNB-78 CNS was over 100 µM throughout.
Turning to `CC(=O)O/N=C/c1ncccc1CO`, the TGI with XF 498 CNS, in the assay on HOP-18 NSCLC, in the assay on DMS 114 small cell lung and with M19-MEL melanoma was over 100 µM throughout.
Consider `O=[N+]([O-])c1c(/C=N/Nc2ccccc2)oc(-c2ccc3c(c2)OCO3)c1-c1ccc2c(c1)OCO2`, for which the TGI in the assay on XF 498 CNS, in the assay on DMS 114 small cell lung and in the assay on M19-MEL melanoma was over 100 µM each time.
As to `CCN(CC)c1ccc(N=Nc2ccc(-c3nc4cccnc4o3)cc2)cc1`, the TGI in the assay on XF 498 CNS, in the assay with DMS 114 small cell lung, with SNB-78 CNS and in the assay with M19-MEL melanoma was over 100 µM throughout.
